Assay results published in patent US20250320290A1, “METHODS FOR TRIGGERING SAFETY KILLING […] USING A CD47-SIRPalpha BLOCKADE AGENT” (Sana Biotechnology, Inc., priority 2020, published 2025).
Entries after “also recorded” stand apart in the source; their conditions may differ.

Key:
[1] = system: human HIP iPSCs (clone 15; no kill switch); test: s.c. HIP iPSCs without kill switch in NSG mice treated with pro-drug; format: in vivo
Description: (§1) Subcutaneous. Healthy male NSG mice were anesthetized via isoflurane inhalation anesthesia in a knockdown chamber. The anesthetized mice were removed from the chamber and placed in a supine position. The injection site (right inguinal area) was sprayed with 70% EtOH. Cells were injected subcutaneously proximal to the inguinal region.
(§2) Mice were anesthetized via isoflurane inhalation anesthesia and injected intraperitoneally (IP) with 250 μl luciferin (45.45 mg/ml). The mice were then positioned in a nose cone in the bioluminescence chamber (anesthesia was maintained at 1.5% with 500 ml oxygen/min). The mice were imaged for 180 seconds. A circle was drawn around the region of interest (ROI) giving a reading of photons/sec of emitted light.
Human HIP iPSCs (clone 15; no kill switch) were injected subcutaneously into Group 6 NSG mice. Flucytosine HD (500 mg/kg) treatment was administered daily intraperitoneally. As shown in FIG. 81A-B, human HIP iPSC survival appeared to be impaired by flucytosine HD although cells had no kill switch. The group was expanded for data validation (FIG. 81C-D and FIG. 81E-F). […]
Human HIP iPSCs (clone 15; no kill switch) were injected subcutaneously into Group 6 NSG mice. Ganciclovir HD (75 mg/kg) treatment was administered daily intraperitoneally starting Day 0. […]

[2] = system: human HIP iPSCs (CyD clone 2G11); test: Cytosine deaminase kill switch: s.c. HIP-CyD iPSCs in NSG mice; format: in vivo
Description: as §1, §2
Human HIP iPSCs (CyD clone 2G11) were injected subcutaneously into Group 1 NSG mice. Flucytosine LD (200 mg/kg) treatment was administered daily intraperitoneally. […] Group 1 mice treatment was as follows: 1×10^6 hiPSC HIP CyD clone 2G11 in diluted MG, S.C.; treatment=200 mg/kg/day Flucytosine, IP (DO).

[3] = system: human HIP iPSCs (HSVTk clone 1-B10); test: HsVtk kill switch: s.c. HIP-HsVtk iPSCs in NSG mice; format: in vivo
Description: as §1, §2
Human HIP iPSCs (HSVTk clone 1-B10) were injected subcutaneously into Group 1 NSG mice. Ganciclovir LD (50 mg/kg) treatment was performed daily intraperitoneally. […] Mice were checked during a 44D follow up. Group 1 mice treatment was as follows: 1×10^6 hiPSCs HIP HSVtk clone 1-B10 luc+ in diluted MG, S.C.; treatment was 50 mg/kg/day Ganciclovir, IP (DO).

[4] = intravenous, cited from earlier work
[5] = system: human HIP iPSCs; test: Subcutaneous human HIP iPSCs in NSG mice with adoptive transfer of human NK cells, BLI; format: in vivo
Description: as §1
The mice were then positioned in a nose cone in the bioluminescence chamber (anesthesia was maintained at 1.5% with 500 ml oxygen/min). The mice were imaged for 180 seconds. A circle was drawn around the region of interest (ROI) giving a reading of photons/sec of emitted light.
IP dosing. The antibody (100 μl) was injected into the peritoneal cavity from the ventral surface by piercing the skin and muscle layers.
SC dosing. Mice were anesthetized via isoflurane inhalation anesthesia and placed in a supine position. The injection site (right inguinal area) was sprayed with 70% EtOH and the antibody (100 μl) was injected into the area of the implanted cells.

[6] = system: mock transfected T cells; test: Innate killing by real-time cell analysis, mock transfected T cells; format: cell-based, human; conditions: in the presence of the antibody
[7] = system: human HIP iPSCs; test: In vitro killing of human HIP iPSCs by human NK cells and macrophages with anti-CD47 antibody; format: cell-based; conditions: 100 μg/ml antibody
[8] = system: HIP CD19CAR-T cells (B2M−/−, CIITA−/−, TRAC−/−, CD19-specific CAR-CD47 T cells); test: Innate killing (NK cells, macrophages) by real-time cell analysis, HIP CAR-T cells; format: cell-based, human; conditions: pretreated with CD47 blocking antibody, E:T 1:1
Description: Briefly, T-cells were plated in CD19^+ tumor cell specific media. After cell index value reached 0.7, human NK cells or human macrophages were added with an E:T ratio of 1:1 with human IL-2 for NK cells and without IL-2 for macrophages. […] Data were standardized and analyzed with the real-time cell analysis instrument software.
After about 48 hours, T-cells were collected and stained with components of a live/dead cell viability staining assay. Briefly, cells were stained with calcein AM and ethidium homodimer-1 according to the manufacturer's protocol. The analysis was performed by flow cytometry and the results were expressed as percentage of dead cells.

Molecule: Nc1[nH]c(=O)ncc1F [Flucytosine]
- survival of HIP iPSCs without kill switch ([1]; Flucytosine HD 500 mg/kg daily intraperitoneally): impaired
- time to killing of HIP-CyD iPSCs ([2]; HD 500 mg/kg daily intraperitoneally from D0): 16 to 32 days
- time to killing of HIP-CyD iPSCs after starting treatment ([2]; HD 500 mg/kg daily intraperitoneally from Day 13): 3 to 11 days
- time to killing of HIP-CyD iPSCs ([2]; LD 200 mg/kg daily intraperitoneally from D0): 16 to 44 days
- time to killing of HIP-CyD iPSCs after starting treatment ([2]; LD 200 mg/kg daily intraperitoneally from Day 13): 3 to 11 days
- benefit of HD as compared to LD ([2]; treatment from D0): No major benefit
- benefit of HD compared to LD ([2]; treatment from Day 13): No benefit

Molecule: Nc1nc(O)c2ncn(COC(CO)CO)c2n1 [Ganciclovir]
- impact on HIP iPSCs without kill switch ([1]; Ganciclovir HD 75 mg/kg daily intraperitoneally from Day 0): no killing; also recorded: no impact
- time to killing of HIP-HsVtk iPSCs ([3]; HD 75 mg/kg daily intraperitoneally from D0): 12 to 16 days
- time to killing of HIP-HsVtk iPSCs after start of treatment ([3]; HD 75 mg/kg daily intraperitoneally from Day 13): ≤ 7 days
- time to killing of HIP-HsVtk iPSCs ([3]; LD 50 mg/kg daily intraperitoneally from D0): 12 to 24 days
- time to killing of HIP-HsVtk iPSCs after start of treatment ([3]; LD 50 mg/kg daily intraperitoneally from Day 13): ≤ 7 days
- benefit of HD ([3]; treatment from D0): slightly beneficial
- benefit of HD compared to LD ([3]; treatment from Day 13): No obvious benefit

Molecule: TTI-621: fusion protein of N-terminal V domain of human SIRPα fused to human IgG1 Fc region (SEQ ID NO:133)
- maximum tolerated dose (MTD) ([4]; monotherapy, relapsed/refractory hematologic malignancies and selected solid tumors): 0.2 mg/kg
- tolerability ([4]; phase 1): well tolerated

B1: magrolimab: anti-CD47 antibody magrolimab (Hu5F9-G4) (Forty Seven, Inc.; Gilead Sciences, Inc.) (antibody, chains of the INN, looked up, V domains shown)
VH: QVQLVQSGAEVKKPGASVKVSCKASGYTFTNYNMHWVRQAPGQRLEWMGTIYPGNDDTSYNQKFKDRVTITADTSASTAYMELSSLRSEDTAVYYCARGGYRAMDYWGQGTLVTVSS
VL: DIVMTQSPLSLPVTPGEPASISCRSSQSIVYSNGNTYLGWYLQKPGQSPQLLIYKVSNRFSGVPDRFSGSGSGTDFTLKISRVEAEDVGVYYCFQGSHVPYTFGQGTKLEIK
- killing of HIP iPSCs ([5]; magrolimab D0-D10, 5×10^4 iPSCs, 1×10^6 NK cells): killing of HIP iPSCs
- re-appearance of iPSCs ([5]; magrolimab stopped after D10, 6-month follow up): didn't re-appear
- killing of mock transfected T cells by NK cell and macrophages [6]: not killed
- killing of human HIP iPSCs by human NK cells [7]: killing
- killing of human HIP iPSCs by human macrophages [7]: killing
- killing of HIP CAR-T cells by macrophages and NK cells on CD47 blocking [8]: susceptible to macrophage and NK cell killing
- killing of HIP CAR-T cells by macrophages and NK cells on CD47 blocking ([8]; listed as macrolimab): induced killing
